Consider 16 compounds from patent US8748417B2, “Amino-pyrrolidine-azetidine diamides as monoacylglycerol lipase inhibitors” (Janssen Pharmaceutica, NV, priority 2010, dated 2014).

Substitutions are numbered along the chain they refer to.

For experiment [1], the target named is T1, purified mutant MGL (mut-MGLL 11-313 L179S L186S) (Homo sapiens, UniProt Q99685, L169S/L176S).
T1 construct: purified mutant MGL (mut-MGLL 11-313 L179S L186S)
T1 sequence (Q99685 1-303 L169S/L176S): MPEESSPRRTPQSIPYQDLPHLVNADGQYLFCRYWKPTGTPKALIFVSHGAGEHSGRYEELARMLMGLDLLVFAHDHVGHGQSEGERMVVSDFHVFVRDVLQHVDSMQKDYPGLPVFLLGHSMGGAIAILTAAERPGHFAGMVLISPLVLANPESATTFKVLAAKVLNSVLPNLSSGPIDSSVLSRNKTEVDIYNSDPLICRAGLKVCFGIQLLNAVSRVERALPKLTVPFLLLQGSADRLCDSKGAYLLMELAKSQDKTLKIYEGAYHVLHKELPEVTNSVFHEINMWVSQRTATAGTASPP
Kind of experiment: MGL enzyme activity assay (4MU-B cleavage), mutant MGL. Format: biochemical. The note with it: mutant MGL 5 nM, 4MU-B 10 μM, 37° C.; read-out: MGL mutant inh IC50. A digest of the protocol: (§1)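 Enzyme in 20 mM PIPES pH 7.0, 150 mM NaCl, 0.001% Tween 20 with 4MU-B at 10 μM final and MGL at 5 nM final; compounds 17 to 0.0003 μM final, enzyme added last. Fluorescence (ex 335/em 440 nm) followed at 37° C for 5 min; IC50 from fit of fractional activity versus inhibitor concentration.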

In experiment [2] the target is T2, purified wild type MGL (wt-MGLL 6H-11-313) (Homo sapiens, UniProt Q99685).
T2 construct: purified wild type MGL (wt-MGLL 6H-11-313)
T2 sequence (Q99685 1-303): T1 sequence (Q99685 1-303 L169S/L176S) with S169L, S176L
Kind of experiment: MGL enzyme activity assay (4MU-B cleavage), wild type MGL. It is filed as biochemical. As to conditions: wild type MGL 5 nM, 4MU-B 10 μM, 37° C.; read-out: MGL wild type inh IC50. An outline of the steps: as §1

For experiment [3], the system named is MGL (rat brain homogenate). Kind of experiment: 2-AG accumulation assay in rat brain homogenate. Format: biochemical. As to conditions: compound 1 μM, percent of vehicle 2-AG accumulation. A digest of the protocol:
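Rat brain homogenate was incubated with compound for 15 min at 37° C., after which CaCl2 was added to a final concentration of 10 mM and incubation continued for 15 min at 37° C. in 5 mL total. Reactions were stopped with 6 mL of 2:1 chloroform/methanol, and 2-AG accumulated in the organic phase was quantified by HPLC/MS.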

The target in another experiment is T3, mutant MGL (Homo sapiens, UniProt Q99685, L169S/L176S).
T3 construct: purified mutant MGL (mut-MGLL 11-313 L179S L186S)
T3 sequence (Q99685 1-303 L169S/L176S): T1 sequence (Q99685 1-303 L169S/L176S)
The experiment can be described thus: MGL ThermoFluor assay - mutant. Format: binding. The note with it: qNMR-corrected compound concentration; read-out: MGL mutant ThermoFluor qKd. How it is done: The ThermoFluor (TF) assay is a 384-well plate-based binding assay that measures thermal stability of proteins^1,2. The experiments were carried out using instruments available from Johnson & Johnson Pharmaceutical Research & Development, LLC. TF dye used in all experiments was 1,8-ANS (Invitrogen: A-47). Final TF assay conditions used for MGL studies were 0.07 mg/ml of mutant MGL, 100 μM ANS, 200 mM NaCl, 0.001% Tween-20 in 50 mM PIPES (pH=7.0).
Screening compound plates contained 100% DMSO compound solutions at a single concentration. For follow-up concentration-response studies, compounds were arranged in a pre-dispensed plate (Greiner Bio-one: 781280), wherein compounds were serially diluted in 100% DMSO across 11 columns within a series. Columns 12 and 24 were used as DMSO reference and contained no compound. For both single and multiple compound concentration-response experiments, the compound aliquots (46 nL) were robotically predispensed directly into 384-well black assay plates (Abgene: TF-0384/k) using the Hummingbird liquid handler. Following compound dispension, protein and dye solutions were added to achieve the final assay volume of 3 μL. The assay solutions were overlayed with 1 μL of silicone oil (Fluka, type DC 200: 85411) to prevent evaporation.
Bar-coded assay plates were robotically loaded onto a thermostatically controlled PCR-type thermal block and then heated from 40 to 90° C. degrees at a ramp-rate of 1° C./min for all experiments. Fluorescence was measured by continuous illumination with UV light (Hamamatsu LC6), supplied via fiber optics and filtered through a band-pass filter (380-400 nm; >6 OD cutoff). Fluorescence emission of the entire 384-well plate was detected by measuring light intensity using a CCD camera (Sensys, Roper Scientific) filtered to detect 500±25 nm, resulting in simultaneous and independent readings of all 384 wells. A single image with 20-sec exposure time was collected at each temperature, and the sum of the pixel intensity in a given area of the assay plate was recorded vs temperature and fit to standard equations to yield the Tm^1. • 1. Pantoliano, M. W., Petrella, E. C., Kwasnoski, J. D., Lobanov, V. S., Myslik, J., Graf, E., Carver, T., Asel, E., Springer, B. A., Lane, P., and Salemme, F. R. (2001) J Biomol Screen 6, 429-40. • 2. Matulis, D., Kranz, J. K., Salemme, F. R., and Todd, M. J. (2005) Biochemistry 44, 5258-66.
The Kd values for certain compounds of Formula (I) were determined from a fit of the equation to the concentration-response plot of the fractional activity as a function of […]. For some experiments, quantitative NMR spectroscopy (qNMR) was used to measure concentration of the initial 100% DMSO compound solutions and, using the same fitting method, qKd values were determined.
(DSF heats the sample and reads unfolding from a dye or from intrinsic fluorescence.)

As to `O=C(c1ccc2c(-c3ccccc3)c[nH]c2c1)N1CC(N[C@H]2CCN(C(=O)c3ccccc3)C2)C1` [Cpd 57, (3S)-1-(Phenylcarbonyl)-N-{1-[(3-phenyl-1H-indol-6-yl)carbonyl]azetidin-3-yl}pyrrolidin-3-amine], the figures for the IC50 in experiment [1] and in experiment [2] were 44.3 nM and 179 nM, respectively. In addition, the “Rat Brain 2AG % VehCntrl (%) @1 μM” value in experiment [3] is listed as 154%.

For the compound `O=C(c1ccc(-c2cccc(C(F)(F)F)c2)cc1)N1CC(NC2CN(C(=O)c3ccccc3)CC2F)C1` (centres unmarked) [Cpd 59, (3-((1-Benzoyl-4-fluoropyrrolidin-3-yl)amino)azetidin-1-yl)(3′-(trifluoromethyl)-[1,1′-biphenyl]-4-yl)methanone], the IC50 was below 5 nM in experiment [1] and 41.4 nM in experiment [2]. In addition, in experiment [3], the “Rat Brain 2AG % VehCntrl (%) @1 μM” value is 389%.

Regarding `Cn1cc(-c2ccccc2)c2ccc(C(=O)N3CC(N[C@H]4CCN(C(=O)c5ccccc5)C4)C3)cc21` [Cpd 64, (3S)-N-{1-[(1-Methyl-3-phenyl-1H-indol-6-yl)carbonyl]azetidin-3-yl}-1-(phenylcarbonyl)pyrrolidin-3-amine], the results for the IC50 in experiment [1] and in experiment [2] were 39.5 nM and 70.9 nM, respectively. For the same compound, in experiment [3], the “Rat Brain 2AG % VehCntrl (%) @1 μM” value was 182%.

Consider `O=C(c1ccc2c(-c3cccc(F)c3)c[nH]c2c1)N1CC(N[C@H]2CCN(C(=O)c3nccs3)C2)C1` [Cpd 202, (3S)-N-(1-{[3-(3-Fluorophenyl)-1H-indol-6-yl]carbonyl}azetidin-3-yl)-1-(1,3-thiazol-2-ylcarbonyl)pyrrolidin-3-amine], for which, in experiment [2], the IC50 is 11 nM. In addition, the “Rat Brain 2AG % VehCntrl (%) @1 μM” value in experiment [3] stood at 363%. Moreover, on mutant MGL, the Kd came out at 56.3 nM.

Turning to `O=C(c1ccc2c(-c3cccc(F)c3)c[nH]c2c1)N1CC(N[C@H]2CCN(C(=O)c3cscn3)C2)C1` [Cpd 203, (3S)-N-(1-{[3-(3-Fluorophenyl)-1H-indol-6-yl]carbonyl}azetidin-3-yl)-1-(1,3-thiazol-4-ylcarbonyl)pyrrolidin-3-amine], the IC50 in experiment [2] turned out to be 50.4 nM. For the same compound, in experiment [3], the “Rat Brain 2AG % VehCntrl (%) @1 μM” value is given as 238%. Moreover, the Kd at mutant MGL turned out to be 264 nM.

For `O=C(c1ccc2c(-c3cccc(F)c3)c[nH]c2c1)N1CC(N[C@H]2CCN(C(=O)c3ccccc3)C2)C1` [Cpd 204, (3S)-N-(1-{[3-(3-Fluorophenyl)-1H-indol-6-yl]carbonyl}azetidin-3-yl)-1-(phenylcarbonyl)pyrrolidin-3-amine], in experiment [2], the IC50 worked out at 344 nM. The Kd on mutant MGL worked out at 186 nM.

For `Cn1cc(-c2cccc(F)c2)c2ccc(C(=O)N3CC(N[C@H]4CCN(C(=O)c5nccs5)C4)C3)cc21` [Cpd 205, (3S)-N-(1-{[3-(3-Fluorophenyl)-1-methyl-1H-indol-6-yl]carbonyl}azetidin-3-yl)-1-(1,3-thiazol-2-ylcarbonyl)pyrrolidin-3-amine], the half-maximal inhibitory concentration (IC50) in experiment [2] is below 5 nM. Also, the “Rat Brain 2AG % VehCntrl (%) @1 μM” value in experiment [3] was determined as 446%. On mutant MGL, the Kd was found to be 21.4 nM.

In the case of `O=C(c1ccc2c(ccn2CC(F)F)c1)N1CC(N[C@H]2CCN(C(=O)c3nccs3)C2)C1` [Cpd 213, (3S)-N-(1-{[1-(2,2-Difluoroethyl)-1H-indol-5-yl]carbonyl}azetidin-3-yl)-1-(1,3-thiazol-2-ylcarbonyl)pyrrolidin-3-amine], the IC50 in experiment [2] was 1390 nM. In addition, the Kd at mutant MGL worked out at 963 nM.

In the case of `O=C(c1cscn1)N1CC[C@H](NC2CN(C(=O)c3cccc4c3ccn4-c3ccc(F)cc3)C2)C1` [Cpd 215, (3S)-N-(1-{[1-(4-Fluorophenyl)-1H-indol-4-yl]carbonyl}azetidin-3-yl)-1-(1,3-thiazol-4-ylcarbonyl)pyrrolidin-3-amine], the IC50 in experiment [2] turned out to be 668 nM. Moreover, the Kd at mutant MGL is 1440 nM.

As to `O=C(c1cscn1)N1CC[C@H](NC2CN(C(=O)c3cccc4c3CCN4c3ccc(F)cc3)C2)C1` [Cpd 217, (3S)-N-(1-{[1-(4-Fluorophenyl)-2,3-dihydro-1H-indol-4-yl]carbonyl}azetidin-3-yl)-1-(1,3-thiazol-4-ylcarbonyl)pyrrolidin-3-amine], the IC50 in experiment [2] was 723 nM. Further, at mutant MGL, the Kd came to 1960 nM.

With `O=C(c1nccs1)N1CC[C@H](NC2CN(C(=O)c3cn(-c4cccc(F)c4)c4ccccc34)C2)C1` [Cpd 218, (3S)-N-(1-{[1-(3-Fluorophenyl)-1H-indol-3-yl]carbonyl}azetidin-3-yl)-1-(1,3-thiazol-2-ylcarbonyl)pyrrolidin-3-amine], in experiment [2], the IC50 was determined as 1890 nM. Further, the Kd on mutant MGL was found to be 3450 nM.

For the compound `O=C(c1nccs1)N1CC[C@H](NC2CN(C(=O)c3cn(-c4ccc(F)cc4)c4ccccc34)C2)C1` [Cpd 219, (3S)-N-(1-{[1-(4-Fluorophenyl)-1H-indol-3-yl]carbonyl}azetidin-3-yl)-1-(1,3-thiazol-2-ylcarbonyl)pyrrolidin-3-amine], the IC50 in experiment [2] amounted to 4980 nM. Also, on mutant MGL, the Kd worked out at 4980 nM.

Turning to `CN(C(=O)Cn1ccc2cc(C(=O)N3CC(N[C@H]4CCN(C(=O)c5nccs5)C4)C3)ccc21)c1ccccc1` [Cpd 222, N-Methyl-N-phenyl-2-{5-[(3-{[(3S)-1-(1,3-thiazol-2-ylcarbonyl)pyrrolidin-3-yl]amino}azetidin-1-yl)carbonyl]-1H-indol-1-yl}acetamide], the IC50 in experiment [2] is 1680 nM. In addition, the Kd at mutant MGL came out at 3240 nM.

On to `O=C(c1nccs1)N1CC[C@H](NC2CN(C(=O)c3ccc4c(ccn4-c4ccc(F)cc4)c3Cl)C2)C1` [Cpd 223, (3S)-N-(1-{[4-Chloro-1-(4-fluorophenyl)-1H-indol-5-yl]carbonyl}azetidin-3-yl)-1-(1,3-thiazol-2-ylcarbonyl)pyrrolidin-3-amine], for which, in experiment [2], the IC50 stood at 14 nM. In addition, the Kd at mutant MGL amounted to 143 nM.

As to `Cc1cc2c(ccn2-c2ccc(F)cc2)cc1C(=O)N1CC(N[C@H]2CCN(C(=O)c3nccs3)C2)C1` [Cpd 224, (3S)-N-(1-{[1-(4-Fluorophenyl)-6-methyl-1H-indol-5-yl]carbonyl}azetidin-3-yl)-1-(1,3-thiazol-2-ylcarbonyl)pyrrolidin-3-amine], the IC50 in experiment [2] was found to be 224 nM. Further, on mutant MGL, the Kd came out at 218 nM.

Take `O=C(c1nccs1)N1CC[C@H](NC2CN(C(=O)c3cc4ccn(-c5ccc(F)cc5)c4cc3Cl)C2)C1` [Cpd 225, (3S)-N-(1-{[6-Chloro-1-(4-fluorophenyl)-1H-indol-5-yl]carbonyl}azetidin-3-yl)-1-(1,3-thiazol-2-ylcarbonyl)pyrrolidin-3-amine]: the concentration for half-maximal inhibition (IC50) in experiment [2] came out at 39.2 nM. Moreover, at mutant MGL, the Kd is 102 nM.

By IC50 is commonly meant the concentration that gives 50% inhibition.
